Results taken from patent US20140357713A1, “ANTIMICROBIAL COMPOUNDS AND METHODS OF USE” (NexMed Holdings, Inc., priority 2012, published 2014).
Structures can show the parent of a compound that is named as a salt. Where two headings read alike, the source gives them in different places.

Tests used:
[1] = Solubility (Sol., Table 1); format: physicochemical
pH (Table 1) = format: physicochemical
[2] = test system: Staphulococcus aureus (ATCC 29213); experiment: Minimum inhibitory concentration (MIC) assay, Example 33; format: cell-based, Staphylococcus aureus
Experimental: (§1) Thirty compounds were tested for antimicrobial activity using standard procedures and standard strains for both the minimum inhibitory concentration (MIC) assay and a time kill study. Both the MIC assay and the time kill study were performed according to Clinical and Laboratory Standards Institute (CLSI) guidelines. Three bacteria strains, Escherichia coli (ATCC 25922), Pseudomonas aeruginosa (ATCC 27853), Staphulococcus aureus (ATCC 29213), and two fungus strains, Candida albicans (ATCC 90029) and Aspergillus niger (CMCC 98003), were used in the experiments.
(§2) Preparation of cultures. Before the experiment, two days for the bacteria strains and five days for fungus strains, an aliquot was removed from the cultures frozen at −80° C. Medium was added to the surface of an appropriate agar plate and streaked with the aliquot. The plate was incubated for 20 to 24 hrs at 35±2° C. for bacteria or for 5 days at 26-30° C. in incubator for fungus. From the resulting growth on each plate, one isolated colony of similar morphology was selected and re-streaked onto a fresh agar plate using a sterile disposable loop. The plate was incubated 20 to 24 hrs at 35±2° C. or for 5 days at 26-30° C. in an incubator.
(§3) Preparation of Assay Plates with Medium and Drugs. On the day of the assay, CAMHB medium or RPMI 1640 medium was removed from 4′C storage and allowed to reach room temperature. Ninety microliters (μL) of room temperature CAMHB or RPMI 1640 (supplemented with the appropriate concentration of DMSO, if required) were added to rows B-G of each 96-well microtiter plate. Using a pipette, duplicate 180 μL aliquots of each drug stock solution were added to column 1 (e.g. A1 and B1 or C1 and D1 or E1 and F1 or G1 and H1). Using a multichannel pipette or the Provision 2000 liquid handler, serial 2-fold dilutions (90 μL) were performed in each row across the plate to row G. Eighty μL of compounds dilutions were transferred to a 96-deep well plate. Medium, 1,520 μL of CAMHB or RPMI 1640, was added to each well. The contents of the wells were mixed thoroughly. A 50 μL aliquot of each of the resulting mixtures was transferred to a 96-well assay plate.
(§4) For bacteria, a sterile inoculating loop was used to transfer growth from an agar plate culture into about 5 mL of test medium. Using a turbidity meter, this inoculum was adjusted so that its density (600 nm) was equivalent to a 0.5 McFarland barium sulfate standard (0.08-0.13). The resulting suspension was diluted 1:100 into medium to obtain two times test inoculums.
(§5) For Aspergillus niger, sporulating colonies were covered with RPMI 1640, and a suspension was prepared by gently probing the colonies with the tip of a transfer pipette. The suspension was transferred to a sterile tube and mixed with a vortex mixer for 15 seconds. The densities at 530 nm were adjusted to 0.09-0.13 for each sample. The resulting suspension was diluted 1:50 with the medium to obtain two times test inoculums. Fifty μL/well of this inoculum suspension was added to wells of drug-containing plates (1:2 dilution). Plates were incubated at 35° C. for the appropriate times. The MIC was read and recorded according to CLSI guidelines.
(§6) The MIC values for thirty compounds against Escherichia coli, Pseudomonas aeruginosa, Staphulococcus aureus, Candida albicans, and Aspergillus niger were recorded and are presented in Table 3 and Table 4.

[3] = test system: Candida albicans (ATCC 90029); experiment: as above; format: cell-based
Experimental: as §1, §2, §3
For Candida albicans, a sterile inoculating loop was used to transfer growth from an agar plate culture into a tube with RPMI1640 medium. This inoculum was adjusted so that its density at 530 nm was in the ranges from 0.08 to 0.13. The resulting suspension was diluted 1:50 and further diluted 1:20 with the medium to obtain two times test inoculums.
as §5, §6

[4] = test system: Aspergillus niger (CMCC 98003); experiment: as above; format: cell-based
Experimental: as §1, §2, §3, §5, §6

[5] = test system: Pseudomonas aeruginosa (ATCC 27853); experiment: as above; format: cell-based; details: for MIC: Table 19 summary
Experimental: as §1, §2, §3, §4, §5, §6

[6] = test system: Escherichia coli (ATCC 25922); experiment: as above; format: cell-based
Experimental: as §1, §2, §3, §4, §5, §6

[7] = test system: Pseudomonas aeruginosa (ATCC 27853); experiment: Time kill study, Example 33 (0 to 5 min); format: cell-based; details: 1×MIC
Experimental: as §1
(§7) The viable counts in Log10 CFU/mL at each time point were recorded.
(§8) Time kill studies. Strain suspensions were prepared as described above for the MIC test, and strain suspensions and compound solutions were mixed in the same volume. Samples were removed at specified times including 0 min, 30 sec, 1 min and 5 mins, were diluted in the test medium and streaked on agar. Colonies were counted after 24 to 48 hrs of incubation. […]

[8] = test system: Candida albicans (ATCC 90029); experiment: Time kill study, Example 33 (0 to 5 min); format: cell-based; details: 1×MIC
Experimental: as §1, §7, §8

[9] = test system: Staphylococcus aureus (ATCC 29213); experiment: Time kill study, Example 33 (0 to 5 min); format: cell-based; details: 1×MIC
Experimental: as §1, §7, §8

[10] = test system: Escherichia coli (ATCC 25922); experiment: Time kill study, Example 33 (0 to 5 min); format: cell-based; details: 1×MIC, sulfate
Experimental: as §1, §7, §8

With `CCCCCCCCCCCCOC(=O)C(C(C)O)N(C)C` (stereo not shown) [Nex-51, Dodecyl 2-(dimethylamino)-3-hydroxybutanoate hydrochloride] the Sol. [1] was 98% and the pH (pH (Table 1)) was 0.56.
In the case of `CCCCCCCCCCCCOC(=O)C(C)N(C)C` (stereo not shown) [Nex-03, Dodecyl 2-(dimethylamino)propanoate sulfate], the pH (pH (Table 1); sulfate) is reported as 1.60, the “MIC” value ([2]; Table 19 summary, sulfate) is reported as 1560 µg/mL and the “MIC S. aureus” value ([2]; n = 1, sulfate) is reported as 1560 µg/mL. The “MIC S. aureus” value ([2]; n = 2, sulfate) was 1560 µg/mL, the “MIC Candida albicans” value ([3]; n = 1, sulfate) was 12500 µg/mL and the “MIC Candida albicans” value ([3]; n = 2, sulfate) was 6250 µg/mL. For the same compound, the MIC ([4]; Aspergillus niger, CMCC98003, n = 1, read-out: MIC Aspergillus niger) was over 12500 µg/mL, the MIC ([4]; Aspergillus niger, CMCC98003, n = 2, read-out: MIC Aspergillus niger) was over 12500 µg/mL and the “MIC” value ([4]; Table 19 summary, sulfate) was over 12500 µg/mL. For the same compound, the “MIC” value ([5]; sulfate) was 3130 µg/mL, the “MIC P. aeruginosa” value ([5]; n = 1, sulfate) was 3130 µg/mL and the “MIC P. aeruginosa” value ([5]; n = 2, sulfate) was 3130 µg/mL. For the same compound, the “MIC” value ([6]; Table 19 summary of Example 33 and Example 35, sulfate) was 1560 µg/mL, the “MIC E. coli” value ([6]; n = 1, sulfate) was 1560 µg/mL and the “MIC E. coli” value ([6]; n = 2, sulfate) was 1560 µg/mL. For the same compound, the “Viable counts, Pseudomonas aeruginosa time kill study” value ([7]; 0.5 min, sulfate) was under 4.0 Log10 CFU/mL, the “Viable counts, Pseudomonas aeruginosa time kill study” value ([7]; 1 min, sulfate) was under 3.70 Log10 CFU/mL and the “Viable counts, Pseudomonas aeruginosa time kill study” value ([7]; 5 min) was under 3.52 Log10 CFU/mL. For the same compound, the “Viable counts, Pseudomonas aeruginosa time kill study” value ([7]; time 0, sulfate) was 5.6 Log10 CFU/mL, the “Viable counts, Candida albicans time kill study” value ([8]; 0.5 min, sulfate) was 5.53 Log10 CFU/mL and the “Viable counts, Candida albicans time kill study” value ([8]; 1 min, sulfate) was 5.54 Log10 CFU/mL. For the same compound, the “Viable counts, Candida albicans time kill study” value ([8]; 5 min, sulfate) was 5.52 Log10 CFU/mL, the “Viable counts, Candida albicans time kill study” value ([8]; time 0, sulfate) was 5.6 Log10 CFU/mL and the “Viable counts, Staphylococcus aureus time kill study” value ([9]; 0.5 min, sulfate) was 6.1 Log10 CFU/mL. The “Viable counts, Staphylococcus aureus time kill study” value ([9]; 1 min, sulfate) was 6.12 Log10 CFU/mL, the “Viable counts, Staphylococcus aureus time kill study” value ([9]; 5 min, sulfate) was 6.11 Log10 CFU/mL and the “Viable counts, Staphylococcus aureus time kill study” value ([9]; time 0, sulfate) was 6.11 Log10 CFU/mL. The “Viable counts, Escherichia coli time kill study” value ([10]; 0.5 min) was 4.90 Log10 CFU/mL, the “Viable counts, Escherichia coli time kill study” value ([10]; 1 min) was 4.18 Log10 CFU/mL and the “Viable counts, Escherichia coli time kill study” value ([10]; 5 min) was 3.82 Log10 CFU/mL. For the same compound, the “Viable counts, Escherichia coli time kill study” value ([10]; time 0) was 4.92 Log10 CFU/mL.
For `CCCCCCCCCCCCOC(=O)C(C)N(C)C` (stereo not shown) [Nex-15, Dodecyl 2-(dimethylamino)propanoate phosphate], the pH (pH (Table 1); phosphate) was 2.01, the “MIC S. aureus” value ([2]; n = 1, phosphate) was 390 µg/mL and the “MIC S. aureus” value ([2]; n = 2, phosphate) was 200 µg/mL. The “MIC” value ([3]; Table 19 summary, phosphate) was 50 µg/mL, the “MIC Candida albicans” value ([3]; n = 1, phosphate) was 50 µg/mL and the “MIC Candida albicans” value ([3]; n = 2, phosphate) was 50 µg/mL. For the same compound, the “MIC” value ([4]; Table 19 summary, phosphate) was 12500 µg/mL, the “MIC Aspergillus niger” value ([4]; n = 1, phosphate) was 12500 µg/mL and the “MIC” value ([5]; phosphate) was over 12500 µg/mL. For the same compound, the “MIC P. aeruginosa” value ([5]; n = 1, phosphate) was over 12500 µg/mL, the “MIC P. aeruginosa” value ([5]; n = 2, phosphate) was over 12500 µg/mL and the “MIC (mg/ml)” value ([6]; Table 19 summary of Example 33 and Example 35, phosphate) was “≧12.5 mg/ml”. For the same compound, the “MIC E. coli” value ([6]; n = 1, phosphate) was over 12500 µg/mL, the “MIC E. coli” value ([6]; n = 2, phosphate) was over 12500 µg/mL and the “Viable counts, Candida albicans time kill study” value ([8]; 0.5 min, phosphate) was 5.23 Log10 CFU/mL. For the same compound, the “Viable counts, Candida albicans time kill study” value ([8]; 1 min, phosphate) was 5.25 Log10 CFU/mL, the “Viable counts, Candida albicans time kill study” value ([8]; 5 min, phosphate) was 5.28 Log10 CFU/mL and the “Viable counts, Candida albicans time kill study” value ([8]; time 0, phosphate) was 5.12 Log10 CFU/mL. The “Viable counts, Staphylococcus aureus time kill study” value ([9]; 0.5 min, phosphate) was 6.16 Log10 CFU/mL, the “Viable counts, Staphylococcus aureus time kill study” value ([9]; 1 min, phosphate) was 6.14 Log10 CFU/mL and the “Viable counts, Staphylococcus aureus time kill study” value ([9]; 5 min, phosphate) was 6.14 Log10 CFU/mL. For the same compound, the “Viable counts, Staphylococcus aureus time kill study” value ([9]; time 0, phosphate) was 6.23 Log10 CFU/mL.
